The text below walks through data of patent US20250011330A1, “Imidazo[1,2- a]pyrazine and Imidazo[1,2- a]pyridine Based Tyrosyl-DNA Phosphodiesterase I (TDP1) Inhibitors” (The USA, As Represented by the Secretary, Department of …, priority 2021, published 2025).

The target of one assay is TDP1 (Homo sapiens (Human), UniProt Q9NUW8). Briefly: TDP1 gel-based in vitro fluorescence assay. The class given is biochemical. The method, then: (§1) (TDP assay buffer: 50 mM Tris HCl, pH 7.5, 80 mM KCl, 2 mM EDTA, 1 mM DTT, 40 μg/ml BSA and 0.01% Tween-20. TDP1 (20 mg/mL in 25 mM Tris-HCl pH 7.2, 150 mM NaCl, 2 mM tris(2-carboxyethyl)phosphine) with 2 mL of well solution composed of 0.1 M MOPS/HEPES pH 7.5, 10% (w/v) PEG 8000, 20% (v/v) ethylene glycol, 0.03 M sodium fluoride, 0.03 M sodium bromide, 0.03 M sodium iodide, 0.03 M sodium bromide and sealed over […] well solution. AF647 labelling buffer: Tris-HCl (pH 7.2, 25 mM), NaCl (150 mM), and tris(2-carboxyethyl)phosphine hydrochloride (TCEP, 2 mM).)
Chain of TDP1 (Q9NUW8 whole entry): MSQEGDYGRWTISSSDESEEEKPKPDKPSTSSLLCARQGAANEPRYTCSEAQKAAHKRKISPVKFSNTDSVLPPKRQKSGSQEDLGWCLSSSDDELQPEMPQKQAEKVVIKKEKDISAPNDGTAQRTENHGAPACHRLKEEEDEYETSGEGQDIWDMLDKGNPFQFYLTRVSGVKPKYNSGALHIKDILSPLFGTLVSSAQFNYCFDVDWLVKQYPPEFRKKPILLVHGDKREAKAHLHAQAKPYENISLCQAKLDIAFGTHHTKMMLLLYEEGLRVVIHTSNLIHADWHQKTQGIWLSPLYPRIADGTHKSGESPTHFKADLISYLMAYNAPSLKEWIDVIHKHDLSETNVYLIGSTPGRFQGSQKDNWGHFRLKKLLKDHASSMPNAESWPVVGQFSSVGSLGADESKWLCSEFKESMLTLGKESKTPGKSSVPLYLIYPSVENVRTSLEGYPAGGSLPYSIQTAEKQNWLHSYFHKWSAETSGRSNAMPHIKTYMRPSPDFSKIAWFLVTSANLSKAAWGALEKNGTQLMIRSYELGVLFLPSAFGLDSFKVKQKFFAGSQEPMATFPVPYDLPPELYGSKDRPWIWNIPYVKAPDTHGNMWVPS
(§2) (DNA only: Buffer+DMSO. DMSO only: Enzyme+DMSO. Drug: Enzyme+Drug, 25° C., 10 min+DNA, reaction at 25° C., 15 min.)
Gel images were scanned using a Typhoon FLA 9500 scanner (GE Healthcare) and densitometric analyses were performed using the ImageQuant software (GE Healthcare). The IC50 of TDP1 inhibitors was calculated by comparing the percentage of cleavage product (5′Cy5-[…]-p-3′) to DMSO control.

The target in the next assay is TDP2 (Homo sapiens (Human), UniProt O95551). Nature of the assay: gel-based TDP2 fluorescence assay in vitro. The class given is biochemical. Particulars: read-out: TDP2 IC50. Here is the method:
as §1, §2

Setting [1] is: Table 1, imidazo[1,2-a]pyridin-3-amines, read-out: IC50.
The mark [2] stands for this setting: Table 2, imidazo[1,2-a]pyrazin-3-amine core, read-out: IC50.
[3] abbreviates: Table 10, PROTACs, read-out: TDP1 IC50.

What is called IC50 is the point on the concentration scale where inhibition reaches its midpoint.

Read-outs that look alike come from different tables or passages of the source.

Chain of TDP2 (O95551 whole entry, species assumed): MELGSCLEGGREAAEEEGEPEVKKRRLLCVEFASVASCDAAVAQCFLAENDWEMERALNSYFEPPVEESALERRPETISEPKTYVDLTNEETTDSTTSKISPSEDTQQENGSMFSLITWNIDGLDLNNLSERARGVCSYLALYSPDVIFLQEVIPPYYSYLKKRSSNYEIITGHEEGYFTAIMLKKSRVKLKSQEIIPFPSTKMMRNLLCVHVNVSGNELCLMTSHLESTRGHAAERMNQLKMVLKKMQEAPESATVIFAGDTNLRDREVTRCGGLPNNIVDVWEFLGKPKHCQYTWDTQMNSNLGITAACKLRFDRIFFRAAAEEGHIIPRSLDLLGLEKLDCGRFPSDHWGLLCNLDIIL

Take `c1ccc(Nc2c(-c3ccccc3)nc3ccccn23)cc1` [Compound 6t, N,2-Diphenylimidazo[1,2-a]pyridin-3-amine]: at TDP1 (setting [1]), the IC50 is above 100 µM.
For the compound `CCOC(=O)c1ccc(Nc2c(-c3ccccc3O)nc3cnccn23)cc1` [Compound 7a], the concentration for half-maximal inhibition (IC50) at TDP1 (setting [2]) was above 1000 µM.
Same read-out and setting: in the case of `COc1ccc(-c2nc3cnccn3c2Nc2ccc(C(N)=O)cc2)cc1` [Compound 7c] it was above 1000 µM; in that of `O=C(O)c1ccc(Nc2c(-c3cccc(O)c3)nc3cnccn23)cc1` [Compound 7d], 127 µM; in that of `O=C(O)c1ccc(Nc2c(-c3ccc(O)cc3)nc3cnccn23)cc1` [Compound 7e], 20 µM.
The same measure, in the same setting: in the case of `O=C(O)c1ccc(Nc2c(-c3ccccc3)nc3cnccn23)c(O)c1` [Compound 7f] it was 18 µM; in that of `COc1ccccc1Nc1c(-c2ccc(C(=O)O)cc2)nc2cnccn12` [Compound 7g], 2300 µM; in that of `Cc1ccc(-c2nc3cnccn3c2Nc2ccc(C(N)=O)cc2)cc1` [Compound 7h], above 1000 µM.
On the same count and under the same terms, in the case of `CNC(=O)c1ccc(Nc2c(-c3ccccc3)nc3cnccn23)cc1` [Compound 7i] it was above 1000 µM; in that of `COC(=O)c1cccc(Nc2c(-c3ccccc3O)nc3cnccn23)c1` [Compound 7j], above 1000 µM; in that of `COC(=O)c1ccccc1Nc1c(-c2ccccc2O)nc2cnccn12` [Compound 7k], above 1000 µM.
For the compound `O=C(O)c1cccc(Nc2c(-c3ccccc3O)nc3cnccn23)c1` [Compound 7m], on TDP1 (setting [2]), the IC50 turned out to be 370 µM.
Consider `O=C(O)c1cccc(Nc2c(-c3cccc(O)c3)nc3cnccn23)c1` [Compound 7n], for which the half-maximal inhibitory concentration (IC50) on TDP1 (setting [2]) is 2050 µM.
With `O=C(O)c1cccc(Nc2c(-c3ccc(O)cc3)nc3cnccn23)c1` [Compound 7o], at TDP1 (setting [2]), the IC50 came out at 216 µM.
On the same count and under the same terms, as for `O=C(O)c1cccc(Nc2c(-c3ccc(N4CCOCC4)cc3)nc3cnccn23)c1` [Compound 7p], the figure is 942 µM; as for `CN(C)c1ccc(-c2nc3cnccn3c2Nc2cccc(C(=O)O)c2)cc1` [Compound 7q], 2900 µM; as for `CCOC(=O)c1cccc(Nc2c(-c3ccc(C(=O)O)cc3)nc3cnccn23)c1` [Compound 7r, 4-(3-((3-(ethoxycarbonyl)phenyl)amino)imidazo[1,2-a]pyrazin-2-yl)benzoic acid], above 1000 µM.
In the case of `CN(C)c1ccc(-c2nc3cnccn3c2Nc2ccc(C(=O)O)cc2)cc1` [Compound 7v], the IC50 at TDP1 (setting [2]) was above 1000 µM.
Same read-out and setting: in the case of `O=C(O)c1ccc(Nc2c(-c3ccc(Cl)cc3)nc3cnccn23)cc1` [Compound 7w] it was above 1000 µM; in that of `O=C(O)c1ccc(Nc2c(-c3cccc(Cl)c3)nc3cnccn23)cc1` [Compound 7x], above 1000 µM; in that of `O=C(O)c1ccc(Nc2c(-c3cccc(Br)c3)nc3cnccn23)cc1` [Compound 7y], above 1000 µM.
In the case of `O=C(O)c1ccccc1Nc1c(-c2ccccc2O)nc2cnccn12` [Compound 7′s, 2-((2-(2-Hydroxyphenyl)imidazo[1,2-a]pyrazin-3-yl)amino)benzoic acid], the IC50 at TDP1 (setting [2]) was above 1000 µM.
Turning to `O=C(O)c1ccc(-c2nc3cnccn3c2Nc2cccc(C(=O)O)c2)cc1` [Compound 7′t, 3-((2-(4-Carboxyphenyl)imidazo[1,2-a]pyrazin-3-yl)amino)benzoic acid], the IC50 at TDP1 (setting [2]) was above 1000 µM.
As for `O=C(O)c1ccc(Nc2c(-c3ccc(F)cc3)nc3cnccn23)cc1` [Compound 7′z, 4-((2-(4-Fluorophenyl)imidazo[1,2-a]pyrazin-3-yl)amino)benzoic acid], on TDP1 (setting [2]), the IC50 is above 1000 µM.
With `Cc1ccc(-c2nc3ccccn3c2Nc2ccc(C(=O)O)cc2)cc1` [Compound 8b, 4-((2-(p-Tolyl)imidazo[1,2-a]pyridin-3-yl)amino)benzoic acid], the IC50 on TDP1 (setting [1]) was determined as 14.8 µM.
The same measure, in the same setting: as for `O=C(O)c1ccc(Nc2c(-c3ccc(OCc4ccccc4)cc3)nc3ccccn23)cc1` [Compound 8c, 4-((2-(4-(Benzyloxy)phenyl)imidazo[1,2-a]pyridin-3-yl)amino)benzoic acid], the figure is 12.7 µM; as for `O=C(O)c1ccc(Nc2c(-c3ccc(C(F)(F)F)cc3)nc3ccccn23)cc1` [Compound 8d, 4-((2-(4-(Trifluoromethyl)phenyl)imidazo[1,2-a]pyridin-3-yl)amino)benzoic acid], 4.2 µM.
On the same count and under the same terms, as for `O=C(O)c1ccc(Nc2c(-c3ccc([N+](=O)[O-])cc3)nc3ccccn23)cc1` [Compound 8e, 4-((2-(4-Nitrophenyl)imidazo[1,2-a]pyridin-3-yl)amino)benzoic acid], the figure is 3.2 µM; as for `O=C(O)c1ccc(Nc2c(-c3ccc(O)cc3)nc3ccccn23)cc1` [Compound 8f, 4-((2-(4-Hydroxyphenyl)imidazo[1,2-a]pyridin-3-yl)amino)benzoic acid], above 100 µM; as for `O=C(O)c1ccc(Nc2c(-c3ccc(S(=O)(=O)O)cc3)nc3ccccn23)cc1` [Compound 8g, 4-((2-(4-Sulfophenyl)imidazo[1,2-a]pyridin-3-yl)amino)benzoic acid], above 100 µM.
On to `O=C(O)c1ccc(Nc2c(-c3ccc(C(=O)O)cc3)nc3ccccn23)cc1` [Compound 8h, 4-(3-((4-Carboxyphenyl)amino)imidazo[1,2-a]pyridin-2-yl)benzoic acid], for which, on TDP1 (setting [1]), the IC50 is above 100 µM.
Still for that read-out and setting: as for `O=C(O)c1ccc(-c2nc3ccccn3c2Nc2ccccc2)cc1` [Compound 8i, 4-(3-(Phenylamino)imidazo[1,2-a]pyridin-2-yl)benzoic acid], the figure is 40.1 µM.
Same read-out and setting: in the case of `O=C(O)c1ccc(Nc2c(-c3ccccc3C(=O)O)nc3ccc(C(=O)O)cn23)cc1` [Compound 8j, 2-(2-Carboxyphenyl)-3-((4-carboxyphenyl)amino)imidazo[1,2-a]pyridine-6-carboxylic acid] it was above 100 µM.
`O=C(O)c1ccc2nc(-c3ccccc3)c(Nc3ccccc3)n2c1` [Compound 8k, 2-Phenyl-3-(phenylamino)imidazo[1,2-a]pyridine-6-carboxylic acid]: the IC50 at TDP1 (setting [1]) is 2.4 µM.
Same read-out and setting: as for `O=C(O)c1ccc2nc(-c3ccccc3)c(Nc3ccc([N+](=O)[O-])cc3)n2c1` [Compound 8l, 3-((4-Nitrophenyl)amino)-2-phenylimidazo[1,2-a]pyridine-6-carboxylic acid], the figure is 22 µM.
For the compound `CS(=O)(=O)c1ccc2nc(-c3ccc(-c4ccccc4)cc3)c(Nc3ccc(C(=O)O)cc3)n2c1` [Compound 8r, 4-((2-([1,1′-Biphenyl]-4-yl)-6-(methylsulfonyl)imidazo[1,2-a]pyridin-3-yl)amino)benzoic acid], on TDP1 (setting [1]), the IC50 is 9.95 µM.
Consider `O=C(O)c1cccc(Nc2c(-c3ccccc3)nc3cnccn23)c1` [Compound 71], for which the IC50 at TDP1 (setting [2]) was above 1000 µM.
Consider `Cc1ccc(-c2nc3cnccn3c2Nc2cccc(C(=O)O)c2)cc1` [Compound M8], for which the IC50 on TDP1 (Table 3, values in brackets (footnote vi), read-out: TDP1 IC50 (μM), separated data from previous experiments) was determined as 233 µM.
As to `Cc1ncsc1-c1ccc(CNC(=O)[C@@H]2C[C@@H](O)CN2C(=O)[C@@H](NC(=O)COCCOCCOCCn2cc(COc3ccc(-c4nc5cc(-c6ccccc6)ccn5c4Nc4ccc(C(=O)O)cc4)cc3)nn2)C(C)(C)C)cc1` [XZ680, 4-((2-(4-((1-((S)-13-((2S,4R)-4-hydroxy-2-((4-(4-methylthiazol-5-yl)benzyl)carbamoyl)pyrrolidine-1-carbonyl)-14,14-dimethyl-11-oxo-3,6,9-trioxa-12-azapentadecyl)-1H-1,2,3-triazol-4-yl)methoxy)phenyl)-7-phenylimidazo[1,2-a]pyridin-3-yl)amino)benzoic acid], the IC50 on TDP1 (setting [3]) was above 100 µM; at TDP2 (Table 10, PROTACs), above 100 µM.
As to `Cc1ncsc1-c1ccc(CNC(=O)[C@@H]2C[C@@H](O)CN2C(=O)[C@@H](NC(=O)COCCOCCOCCOCCn2cc(COc3ccc(-c4nc5cc(-c6ccccc6)ccn5c4Nc4ccc(C(=O)O)cc4)cc3)nn2)C(C)(C)C)cc1` [XZ681, 4-((2-(4-((1-((S)-16-((2S,4R)-4-Hydroxy-2-((4-(4-methylthiazol-5-yl)benzyl)carbamoyl)pyrrolidine-1-carbonyl)-17,17-dimethyl-14-oxo-3,6,9,12-tetraoxa-15-azaoctadecyl)-1H-1,2,3-triazol-4-yl)methoxy)phenyl)-7-phenylimidazo[1,2-a]pyridin-3-yl)amino)benzoic acid], the IC50 at TDP1 (setting [3]) is above 100 µM; at TDP2 (Table 10, PROTACs), above 100 µM.
On to `Cc1cncc(Oc2ccc(/C=N\OCc3ccc4nc(-c5ccccc5)c(Nc5ccc(C(=O)O)cc5)n4c3)cc2)n1` [XZ713, (Z)-4-((6-((((4-((6-Methylpyrazin-2-yl)oxy)benzylidene)amino)oxy)methyl)-2-phenylimidazo[1,2-a]pyridin-3-yl)amino)benzoic acid], for which the IC50 on TDP2 (Table 7, HPLC-purified oxime leads) is above 100 µM.
